Key:
[1] = (§1) Oral bioavailability in Lewis rat at 1 mg/kg; format: ADME, organism-based; conditions: Lewis, in vivo
Rattus norvegicus [2] = test: (§2) Clearance in Lewis rat at 1 mg/kg, iv; format: ADME, organism-based; set-up: dose 1 mg/kg, route intravenous; conditions: in vivo
[3] = Half life in Lewis rat at 1 mg/kg, iv; format: ADME, organism-based; set-up: dose 1 mg/kg, route intravenous; conditions: in vivo
[4] = as §2; format: ADME, organism-based; set-up: dose 1 mg/kg, route intravenous; conditions: Lewis, in vivo
[5] = AUC in Lewis rat 0.25 mg/kg, po; conditions: Lewis, plasma
[6] = Clearance in Lewis rat at 0.25 mg/kg, iv; format: ADME, organism-based; set-up: dose 0.25 mg/kg, route intravenous; conditions: in vivo
[7] = Half life in Lewis rat at 0.25 mg/kg, iv and 0.25 mg/kg, po; format: ADME, organism-based; conditions: in vivo
[8] = Oral bioavailability in Lewis rat at 0.25 mg/kg, po; format: ADME, organism-based; conditions: in vivo
Rattus norvegicus [9] = test: Volume of distribution at steady state in Lewis rat at 1 mg/kg, iv; format: ADME, organism-based; set-up: dose 1 mg/kg, route intravenous; conditions: in vivo
[10] = Oral bioavailability in cynomolgus monkey at 1.4 mg/kg; format: ADME, organism-based, Macaca fascicularis; conditions: in vivo
[11] = Oral bioavailability in mouse; format: ADME, organism-based; conditions: in vivo
[12] = Oral bioavailability in dog; format: ADME, organism-based, Canis lupus familiaris; conditions: in vivo
[13] = Ratio of drug level in brain to plasma in Lewis rat at 1 mg/kg, iv and 1 mg/kg, po; format: ADME, organism-based; conditions: read-out: BPR
Rattus norvegicus [14] = test: as §1; format: ADME, organism-based; conditions: in vivo
Rattus norvegicus [15] = test: AUC in Lewis rat 0.25 mg/kg, po; conditions: in vivo

Which bioavailability [1] does the source give for `Cc1ccc(C(=O)NC2CC2)cc1-c1ccc(C(=O)NCC2CC2)cn1` here?
Its bioavailability is 99%.

What about the clearance (Rattus norvegicus [2]) of the same compound?
Its clearance is 1.5 mL/min/kg.

What about the half-life [3] of the same compound?
The half-life was 3 h.

With `Cc1c(F)cc(C(=O)NC2CC2)cc1-c1ccc(C(=O)NCC2CC2)cn1` as the compound, how does the bioavailability [1] read?
Its bioavailability is over 95%.

And the clearance [4]?
The clearance was 2.5 mL/min/kg.

What about the half-life [3] of the same compound?
The half-life was 1.9 h.

What about the AUC [5] of the same compound?
Its AUC is 810 ng·h/mL.

Which clearance [6] does the source give for `Cc1c(F)cc(C(=O)NC2CC2)cc1-c1ccc(C(=O)NCC(C)C)cn1` here?
Its clearance is 6.4 mL/min/kg.

What about the half-life [7] of the same compound?
Its half-life is 1.1 h.

What about the bioavailability [8] of the same compound?
Its bioavailability is 56%.

And the AUC [5]?
Its AUC is 360 ng·h/mL.

Which AUC [5] does the source give for `Cc1c(F)cc(C(=O)NC2CC2)cc1-c1ccc(C(=O)N[C@H](C)C(C)C)cn1` here?
The AUC was 50 ng·h/mL.

Which AUC [5] does the source give for `Cc1c(F)cc(C(=O)NC2CC2)cc1-c1ccc(C(=O)N[C@@H](C)C(C)C)cn1` here?
Its AUC is 8 ng·h/mL.

For `Cc1c(F)cc(C(=O)NC2CC2)cc1-c1ccc(C(=O)N[C@H](C)C(C)(C)C)cn1`, which AUC [5] is on record?
The AUC was 23 ng·h/mL.

With `Cc1c(F)cc(C(=O)NC2CC2)cc1-c1ccc(C(=O)N[C@@H](C)C(C)(C)C)cn1` as the compound, how does the AUC [5] read?
Its AUC is 6 ng·h/mL.

For `Cc1c(F)cc(C(=O)NC2CC2)cc1-c1ccc(C(=O)NCC(C)(C)C)cn1` [LOSMAPIMOD], which Vdss (Rattus norvegicus [9]) is on record?
Its Vdss is 0.9 L/kg.

And the bioavailability [10]?
The bioavailability was 35%.

And the bioavailability [11]?
The bioavailability was 59%.

And the bioavailability [12]?
The bioavailability was 55%.

And the Kp [13]?
Its Kp is 0.1.

And the half-life [7]?
The half-life was 1.1 h.

What about the bioavailability [8] of the same compound?
Its bioavailability is 51%.

What about the F (Rattus norvegicus [14]) of the same compound?
Its F is 71%.

What about the half-life [3] of the same compound?
The half-life was 1.2 h.

What about the AUC (Rattus norvegicus [15]) of the same compound?
The AUC was 220 ng·h/mL.

Source: ChEMBL document CHEMBL1781916, “p38alpha mitogen-activated protein kinase inhibitors: optimization of a series of biphenylamides to give a molecule suitable for clinical progression” (J Med Chem, 2009)
